According to PMC5478271, “Chemical structure-guided design of dynapyrazoles, cell-permeable dynein inhibitors with a unique mode of action” (eLife, 2017):

Target: T1, human cytoplasmic dynein 2 (GFP-dynein 2, amino acids 1091–4307) (Homo sapiens, UniProt Q8NCM8)
T1 construct: (AA 1091–4307, uniprot: Q8NCM8); protein A tag (followed by TEV-cleavable linker) (N, cleaved yes); made in house; host or cells: Sf9 insect cells (baculovirus)
Test: Microtubule gliding (motility) assay with GFP-dynein 2
Type: biochemical
Details: for Velocity of dynein-2-driven microtubule gliding: 20 µM compound, solvent control 128 ± 14 nm/s, mean ± S.D.; for Velocity of dynein-2-driven microtubule gliding / IC50: 1 mM MgATP, 0.05 mg/mL casein, 2% DMSO; for IC50: read-out: IC50, inhibition of GFP-dynein-2-driven motility
Method: We purified an N-terminally GFP-tagged motor-domain construct of dynein 2 using an insect cell expression system ([Schmidt et al., 2015]). The GFP tag in this construct (GFP-dynein 2, amino acids 1091–4307) allowed the motor protein to be immobilized on passivated glass coverslips used in microtubule gliding assays. GFP-dynein 2 was obtained as a mono-disperse peak by gel filtration (Figure 2D and E). In the presence of ATP (1 mM), this protein moved microtubules with a velocity of 128 ± 14 nm/s (mean ± SD, Figure 2G and I).
Reaction setup: A coverslip-based motility assay was adapted from similar assays reported previously ([Firestone et al., 2012]; [Schmidt et al., 2015]). A flow chamber assembled on a pre-cleaned microscope coverslide (3–5 µL chamber volume) was hydrated with buffer A (25 mM PIPES, 30 mM KCl, 5 mM MgCl2, 1 mM EGTA, 0.01% Triton X-100, 1 mM DTT, 20 µM taxol, pH 7.0 with KOH). Anti-GFP antibody (0.4 mg/mL, affinity purified rabbit antibody) was flowed into the chamber and allowed to adhere non-specifically to the glass for 20 s. The surface was blocked using 0.5 mg/mL α-casein in buffer A. Excess protein was then washed away with buffer A. GFP-dynein motor domain was diluted in buffer A supplemented with 1 mM DTT and 0.1 mM ATP (2 mM DTT final; GFP-dynein 2 diluted to: 180 nM; GFP-dynein 1 diluted to: 60 nM), flowed into the chamber and allowed to bind for 20 s. Excess protein was washed away with buffer A. Reaction mix (25 mM PIPES, 90 mM KCl, 6 mM MgCl2, 1 mM EGTA, 0.01% Triton X-100, 3 mM DTT, 20 µM taxol, 1 mM ATP, 1x oxygen scavenging system components [4.5 mg/mL glucose, 35 µg/mL catalase, 200 µg/mL glucose oxidase], 2% final DMSO [v/v] with compounds at appropriate concentrations, 0.05 mg/mL α-casein, microtubules [rhodamine labeled, purified from bovine brain, GMP-CPP and Taxol-stabilized], pH 7.0 with KOH) was flowed into the chamber using ~4 chamber volumes. For experiments shown in Figure 4—figure supplement 1, α-casein concentration in reaction mix was 0.5 mg/mL and all other parameters were held constant.
For reversibility experiments, motility in the presence of 5 µM 8 was observed as above, and upon completion of imaging, the chamber, fresh buffer A supplemented with 1 mM ATP was flowed into the chamber and incubated for 1 min; this wash and incubation cycle was repeated twice. Reaction mix containing DMSO (no compound) was flowed into the chamber using ~4 chamber volumes. The chamber was sealed with valap and returned to the microscope.
Microscopy conditions: Following addition of reaction mix, microtubules were allowed to bind for 5 min before imaging. For reversibility experiments, microtubules were allowed to bind for 10 min before imaging. Videos were taken on a Zeiss Axiovert 200M wide-field microscope equipped with a Zeiss 100x/1.45 NA α-Plan-Fluar objective. Data were captured with an EM-CCD camera (iXon DU-897, Andor Technology) with a 0.2 s exposure time and frame rate of 0.25–0.5/second. Four 10–20 s videos were captured per experimental condition. Velocities were measured using the kymograph tool in FIJI ([Schindelin et al., 2012]). Data analysis is discussed below under ‘General data analysis procedures.’
Microtubule velocity measurements: the tracks of microtubules were traced and converted to kymographs (x axis-displacement, y axis-time) using the kymograph function of FIJI (RRID: SCR_002285). The angle formed between an edge of a microtubule and the horizontal was measured. This angle, θ, was converted into velocity using the following relationship: velocity = 1/|tangent(θ)| * (unit pixel distance)/(time interval between frames).
The calibrated pixel distance was 0.152 µm and the time interval between frames was either 2 or 4 s. The velocities of at least seven microtubules were measured per field of view, if sufficient tracks could be found. In cases where fewer than seven microtubules were found in a field of view, velocities of all microtubules on the coverslip were measured. […]

T1 sequence (Q8NCM8 1091-4307): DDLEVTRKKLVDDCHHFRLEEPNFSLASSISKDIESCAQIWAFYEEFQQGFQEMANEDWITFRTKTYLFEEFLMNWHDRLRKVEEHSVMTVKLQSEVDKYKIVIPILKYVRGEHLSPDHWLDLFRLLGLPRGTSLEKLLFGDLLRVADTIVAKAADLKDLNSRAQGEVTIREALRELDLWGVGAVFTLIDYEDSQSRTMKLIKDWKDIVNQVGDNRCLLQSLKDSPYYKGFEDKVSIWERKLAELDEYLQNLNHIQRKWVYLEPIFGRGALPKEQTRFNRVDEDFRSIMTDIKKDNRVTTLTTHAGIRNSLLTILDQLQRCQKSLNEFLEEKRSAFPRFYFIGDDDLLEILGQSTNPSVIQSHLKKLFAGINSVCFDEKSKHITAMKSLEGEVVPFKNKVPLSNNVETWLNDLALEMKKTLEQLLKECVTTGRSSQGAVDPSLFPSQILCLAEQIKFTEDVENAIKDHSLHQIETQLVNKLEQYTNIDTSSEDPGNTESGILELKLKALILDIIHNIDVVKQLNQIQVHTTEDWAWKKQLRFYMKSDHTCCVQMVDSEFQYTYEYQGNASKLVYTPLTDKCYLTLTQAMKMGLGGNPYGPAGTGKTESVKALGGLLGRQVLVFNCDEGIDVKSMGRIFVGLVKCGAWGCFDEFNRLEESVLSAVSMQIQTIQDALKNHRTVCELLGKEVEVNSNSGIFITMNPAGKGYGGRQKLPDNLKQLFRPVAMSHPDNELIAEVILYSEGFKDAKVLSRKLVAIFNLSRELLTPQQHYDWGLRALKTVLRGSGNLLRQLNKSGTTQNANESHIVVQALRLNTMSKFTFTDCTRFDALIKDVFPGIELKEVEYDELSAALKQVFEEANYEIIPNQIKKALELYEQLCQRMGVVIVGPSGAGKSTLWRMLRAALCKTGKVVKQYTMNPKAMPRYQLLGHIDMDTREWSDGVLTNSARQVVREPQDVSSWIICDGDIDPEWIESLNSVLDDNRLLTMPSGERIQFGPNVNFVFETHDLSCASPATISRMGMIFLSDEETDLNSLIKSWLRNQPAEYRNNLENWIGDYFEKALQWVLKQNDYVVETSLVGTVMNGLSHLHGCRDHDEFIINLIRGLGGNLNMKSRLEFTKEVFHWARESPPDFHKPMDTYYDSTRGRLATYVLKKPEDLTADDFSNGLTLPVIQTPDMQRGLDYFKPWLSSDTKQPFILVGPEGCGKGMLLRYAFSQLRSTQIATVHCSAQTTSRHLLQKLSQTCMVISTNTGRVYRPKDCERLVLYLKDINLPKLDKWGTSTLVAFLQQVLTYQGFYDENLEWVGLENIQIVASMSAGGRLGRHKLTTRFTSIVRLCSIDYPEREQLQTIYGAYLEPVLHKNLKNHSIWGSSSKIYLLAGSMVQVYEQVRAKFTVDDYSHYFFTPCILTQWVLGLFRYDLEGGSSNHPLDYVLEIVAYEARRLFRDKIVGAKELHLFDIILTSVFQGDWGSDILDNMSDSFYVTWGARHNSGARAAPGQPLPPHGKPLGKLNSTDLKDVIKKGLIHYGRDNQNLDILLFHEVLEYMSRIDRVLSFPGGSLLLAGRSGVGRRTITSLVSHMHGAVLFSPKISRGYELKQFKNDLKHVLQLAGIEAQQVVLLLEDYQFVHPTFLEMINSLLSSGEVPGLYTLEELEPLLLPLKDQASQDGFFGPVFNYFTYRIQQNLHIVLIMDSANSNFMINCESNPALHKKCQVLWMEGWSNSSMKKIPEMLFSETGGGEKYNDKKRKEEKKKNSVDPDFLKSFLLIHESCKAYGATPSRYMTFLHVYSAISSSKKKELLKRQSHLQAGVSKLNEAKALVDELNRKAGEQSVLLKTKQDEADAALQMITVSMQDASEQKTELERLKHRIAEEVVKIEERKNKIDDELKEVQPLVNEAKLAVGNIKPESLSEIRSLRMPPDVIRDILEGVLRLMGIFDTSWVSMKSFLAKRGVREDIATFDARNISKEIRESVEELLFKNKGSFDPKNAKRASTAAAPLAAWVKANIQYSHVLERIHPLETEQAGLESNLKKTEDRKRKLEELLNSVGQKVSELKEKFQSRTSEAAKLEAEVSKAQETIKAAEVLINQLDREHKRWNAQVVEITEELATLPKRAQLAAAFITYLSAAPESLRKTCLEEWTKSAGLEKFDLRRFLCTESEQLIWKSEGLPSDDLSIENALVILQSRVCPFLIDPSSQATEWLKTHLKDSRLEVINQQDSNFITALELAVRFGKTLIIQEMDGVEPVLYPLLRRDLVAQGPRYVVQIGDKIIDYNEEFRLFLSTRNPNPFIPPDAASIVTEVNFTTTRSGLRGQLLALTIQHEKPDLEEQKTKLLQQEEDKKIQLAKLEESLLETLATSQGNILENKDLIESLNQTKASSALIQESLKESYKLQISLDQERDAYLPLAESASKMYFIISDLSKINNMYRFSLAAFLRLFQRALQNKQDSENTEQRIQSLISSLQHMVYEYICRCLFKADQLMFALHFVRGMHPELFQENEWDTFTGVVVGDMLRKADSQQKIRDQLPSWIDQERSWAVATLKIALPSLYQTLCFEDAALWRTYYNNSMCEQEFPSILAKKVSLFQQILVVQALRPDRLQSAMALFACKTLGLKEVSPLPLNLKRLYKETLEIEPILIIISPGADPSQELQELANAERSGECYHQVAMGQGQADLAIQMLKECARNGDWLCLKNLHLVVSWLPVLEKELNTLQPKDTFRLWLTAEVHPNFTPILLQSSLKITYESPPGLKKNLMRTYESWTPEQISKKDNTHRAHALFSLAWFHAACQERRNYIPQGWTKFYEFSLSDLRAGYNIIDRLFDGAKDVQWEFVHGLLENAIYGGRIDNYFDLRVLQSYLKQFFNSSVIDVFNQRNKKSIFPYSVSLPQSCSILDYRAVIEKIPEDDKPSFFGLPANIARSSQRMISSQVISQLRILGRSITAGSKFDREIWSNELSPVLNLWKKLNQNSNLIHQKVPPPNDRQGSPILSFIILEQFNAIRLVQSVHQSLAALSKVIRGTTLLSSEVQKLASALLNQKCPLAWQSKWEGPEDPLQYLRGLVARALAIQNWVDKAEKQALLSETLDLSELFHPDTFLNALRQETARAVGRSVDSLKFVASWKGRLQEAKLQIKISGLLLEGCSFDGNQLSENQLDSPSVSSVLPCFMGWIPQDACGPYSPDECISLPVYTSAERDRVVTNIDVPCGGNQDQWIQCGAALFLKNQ

Row | Velocity of dynein-2-driven microtubule gliding | IC50 [µM] | Improvement in potency of dynein 2 inhibition by cyclization (compound 6 versus compound 9) (microtubule gliding assay) | Structure (SMILES)
1 | – | 17.7 | – | N#C/C(C(=O)c1ccc(Cl)cc1Cl)=C1\NC(=O)c2cc(C(F)(F)F)ccc2N1 [Compound 9, (E)-3-(2,4-dichlorophenyl)-3-oxo-2-(4-oxo-6-(trifluoromethyl)-3,4-dihydroquinazolin-2(1H)-ylidene)propanenitrile]
2 | 58 ± 14 nm/s | – | – | N#Cc1c(C2(c3ccc(Cl)cc3)CC2)nn2c1[nH]c(=O)c1ccccc12 [Compound 5, 2-[1-(4-chlorophenyl)cyclopropyl]-5-oxo-4H-pyrazolo[1,5-a]quinazoline-3-carbonitrile]
3 | 128 ± 21 nm/s | – | – | COc1ccc2c(c1)c(=O)[nH]c1c(C#N)c(C3(c4ccc(Cl)cc4)CC3)nn12 [Compound 7, 2-[1-(4-chlorophenyl)cyclopropyl]-7-methoxy-5-oxo-4H-pyrazolo[1,5-a]quinazoline-3-carbonitrile]
4 | 126 ± 17 nm/s | – | – | N#Cc1c(-c2ccc(Cl)cc2Cl)cn2c1[nH]c(=O)c1ccccc12 [Compound 2, 2-(2,4-dichlorophenyl)-5-oxo-4H-pyrrolo[1,2-a]quinazoline-3-carbonitrile]
5 | 6 ± 2 nm/s | 2.9 ± 0.6 | ~ 6 fold | N#Cc1c(C2(c3ccc(Cl)cc3)CC2)nn2c1[nH]c(=O)c1cc(C(F)(F)F)ccc12 [Compound 6, 2-(1-(4-chlorophenyl)cyclopropyl)-5-oxo-7-(trifluoromethyl)-4,5-dihydropyrazolo[1,5-a]quinazoline-3-carbonitrile]

Row | Structure (SMILES) | Velocity of dynein-2-driven microtubule gliding | IC50 [µM] | Improvement in potency of dynein 2 inhibition by cyclization (compound 6 versus compound 9) (microtubule gliding assay)
6 | N#Cc1c(-c2ccc(Cl)cc2Cl)nn2c1[nH]c(=O)c1ccccc12 [Compound 4, 2-(2,4-dichlorophenyl)-5-oxo-4H-pyrazolo[1,5-a]quinazoline-3-carbonitrile] | comparable to that observed in the presence of ciliobrevin D | – | –
7 | O=c1[nH]c2cc(-c3ccc(Cl)cc3Cl)nn2c2ccccc12 [Compound 3, 2-(2,4-dichlorophenyl)-4H-pyrazolo[1,5-a]quinazolin-5-one] | comparable to that observed in the presence of ciliobrevin D | – | –
